{"source": "patent US10314831B2", "about": "“RAC1 inhibitors of neurofibroma formation” (Indiana University Research and Technology Corporation, priority 2014, dated 2019)", "key": {"[1]": {"target": "T1, Rac1-GTP (Mus musculus, UniProt P63001)", "T1 construct": "endogenous in cells; host or cells: murine-derived Nf1-/- Schwann cells", "test": "PDGF-mediated Rac1-GTP activity in Nf1-/- Schwann cells (immunoprecipitation and activity assay)", "format": "cell-based", "details": "murine-derived neurofibroma cells (Nf1-/- Schwann cells), 50 ng/mL PDGF for 2 minutes", "procedure": "FIG. 2 depicts the inhibition of Rac1-GTP activity by compound C20-26. Compound C20-26 inhibits PDGF-mediated Rac1-GTP activity at 40 nM in murine-derived neurofibroma cells. After 24-hour starvation in 0.5% BSA/DMEM, Nf1−/−Schwann cells were pretreated with compound C20-26 at the indicated concentrations. Cells were then stimulated with 50 ng/mL PDGF for 2 minutes and harvested for immunoprecipitation.\n(§1) FIGS. 3A-3C depicts various properties of compound C20. FIG. 3A) Compound C20 inhibits PDGF-mediated Rac1-GTP activity at 0.5 μM in murine-derived neurofibroma cells. After 24-hour starvation in 0.5% BSA/DMEM, Nf1−/− Schwann cells were pretreated with compound C20 at the indicated concentrations. Cells were then stimulated with 50 ng/mL PDGF for 2 minutes and harvested for immunoprecipitation and activity assays. FIG. 3B) Compound C20 specifically interfered with Rac1-Tiam1 interactions at 15 nM in a GEF assay using purified protein. FIG. 3C) In [^3H]-thymidine dose-inhibition experiments, murine derived Nf1−/− Schwann cells were pre-treated with increasing quantities of the known Rac1 inhibitor NSC23766 or with putative Rac1 inhibitor C20."}, "[2]": {"target": "T2, Rac1-Tiam1 interactions (Homo sapiens, UniProt P63000)", "T2 construct": "purchased Cytoskeleton, Inc. BK100", "test": "Rho-GEF exchange assay with purified Tiam1 and Rac1 (Cytoskeleton BK100 kit)", "format": "biochemical", "procedure": "as §1\nRho-GEF exchange experiments using a commercially available kit that measures guanine exchange fluorescence quantification (Cat #BK100; Cytoskeleton, Inc., Denver, Colo.) were conducted to measure GEF inhibition by C20."}, "[3]": {"tested_on": "Nf1-/- Schwann cells", "test": "PDGF-mediated proliferation of NF1-deficient Schwann cells ([3H]-thymidine)", "format": "cell-based, murine", "procedure": "as §1\nIn initial screens assaying platelet derived growth factor (PDGF)-mediated proliferation in NF1-deficient Schwann cells, compound C20 (KM04569, Ryan Scientific) was identified. C20 inhibited Schwann cell proliferation at 2 μM and Rac1GTP activity at 0.5 μM (FIGS. 3A-C). The structure of C20 is shown below:\nSeveral analogs of C20 were identified or synthesized and were then screened using the NF1−/− Schwann cell proliferation assay. The initial set of thirteen analogs were developed (Table 1; First SAR) by making substitutions in the C and D pharmacophore elements."}, "[4]": {"tested_on": "Ras-GTP", "test": "Ras-GTP activation", "format": "cell-based", "details": "data not shown", "from_the_text": "(§2) No effect of C20 on Ras-GTP activation or Akt phosphorylation was observed (data not shown). However, C20 mitigated Erk1/2 phosphorylation."}, "[5]": {"tested_on": "Akt", "test": "Akt phosphorylation", "format": "cell-based", "details": "data not shown", "from_the_text": "as §2"}, "[6]": {"tested_on": "Erk1/2", "test": "Erk1/2 phosphorylation", "format": "cell-based", "from_the_text": "as §2"}, "[7]": {"target": "Rac1 (Homo sapiens, UniProt P63000)", "details": "previous work; cited from earlier work"}, "[8]": {"details": "previous work; cited from earlier work"}}, "data": [{"smiles": "O=S(=O)(Oc1cc(Cl)cc(Cl)c1)c1ccc(-c2ccccn2)s1", "note": "[Compound C20]", "values": [{"measurement": "concentration inhibiting PDGF-mediated Rac1-GTP activity", "setting": "[1]", "result": 0.5, "unit": "µM"}, {"measurement": "concentration interfering with Rac1-Tiam1 interactions", "setting": "[2]; GEF assay using purified protein", "result": 15, "unit": "nM"}, {"measurement": "GEF inhibition", "setting": "[2]; incubating Tiam1 and Rac1", "result": "dose-dependent GEF inhibition"}, {"measurement": "IC50", "setting": "[3]; Mus musculus, murine derived Nf1-/- Schwann cells, approximate, read-out: IC50, [3H]-thymidine dose-inhibition", "result": "~2000", "unit": "nM"}, {"measurement": "concentration inhibiting Schwann cell proliferation", "setting": "[3]; PDGF-mediated proliferation, NF1-deficient Schwann cells", "result": 2, "unit": "µM"}, {"measurement": "effect on Ras-GTP activation", "setting": "[4]", "result": "No effect"}, {"measurement": "effect on Akt phosphorylation", "setting": "[5]", "result": "No effect"}, {"measurement": "effect on Erk1/2 phosphorylation", "setting": "[6]", "result": "mitigated"}]}, {"smiles": "CCn1c2ccccc2c2cc(Nc3ccnc(NCCCN4CCOCC4)n3)ccc21", "note": "[EHop-016]", "values": [{"measurement": "concentration inhibiting Rac1", "setting": "[7]", "result": 1.1, "unit": "µM"}]}, {"smiles": "CCN(CC)CCCC(C)Nc1nc(C)cc(Nc2ccc3nc(C)cc(N)c3c2)n1", "note": "(stereo not shown) [NSC23766]", "values": [{"measurement": "toxicity", "setting": "[8]", "result": "high toxicity"}]}]}
